The test system of this assay is 171881-019-R-J1-PDC complex spheroid viability. As to the kind of experiment: Anticancer human tumor 171881-019-R-J1-PDC patient-derived invasive breast carcinoma cell line growth inhibition. The note with it: for viability, T/C: stronger effect = lower value. The gist of the method: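 Drug combinations with the LSD1 inhibitor iadademstat tested on tumor cells co-cultured as spheroids with endothelial cells and mesenchymal stem cells. Concentrations descended in half-log increments from clinical Cmax or 10 microM.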

Where [1] appears, read: curve of first compound, second compound 0.1 µM.
Setting [2] is: curve of first compound, second compound 0.316 µM.
[3] abbreviates: curve of first compound, second compound 1 µM.
[4] abbreviates: curve of first compound, second compound 3.16 µM.
[5] abbreviates: curve of first compound, second compound 10 µM.
[6] abbreviates: second compound 0.1 µM, first compound 0.000949 µM.
[7] abbreviates: second compound 0.1 µM, first compound 0.003 µM.
Setting [8] is: second compound 0.1 µM, first compound 0.00949 µM.
Where [9] appears, read: second compound 0.1 µM, first compound 0.03 µM.
The mark [10] stands for this setting: second compound 0.1 µM, first compound 0.0949 µM.
Where [11] appears, read: second compound 0.1 µM, first compound 0.3 µM.
The mark [12] stands for this setting: second compound 0.316 µM, first compound 0.000949 µM.
Setting [13] is: second compound 0.316 µM, first compound 0.003 µM.
[14] abbreviates: second compound 0.316 µM, first compound 0.00949 µM.
[15] abbreviates: second compound 0.316 µM, first compound 0.03 µM.
Setting [16] is: second compound 0.316 µM, first compound 0.0949 µM.
Where [17] appears, read: second compound 0.316 µM, first compound 0.3 µM.
Setting [18] is: second compound 1 µM, first compound 0.000949 µM.
Setting [19] is: second compound 1 µM, first compound 0.003 µM.
The mark [20] stands for this setting: second compound 1 µM, first compound 0.00949 µM.
The mark [21] stands for this setting: second compound 1 µM, first compound 0.03 µM.
Setting [22] is: second compound 1 µM, first compound 0.0949 µM.
[23] abbreviates: second compound 1 µM, first compound 0.3 µM.
[24] abbreviates: second compound 3.16 µM, first compound 0.000949 µM.
Where [25] appears, read: second compound 3.16 µM, first compound 0.003 µM.
The mark [26] stands for this setting: second compound 3.16 µM, first compound 0.00949 µM.
The mark [27] stands for this setting: second compound 3.16 µM, first compound 0.03 µM.
[28] abbreviates: second compound 3.16 µM, first compound 0.0949 µM.
Setting [29] is: second compound 3.16 µM, first compound 0.3 µM.
[30] abbreviates: second compound 10 µM, first compound 0.000949 µM.
The mark [31] stands for this setting: second compound 10 µM, first compound 0.003 µM.
[32] abbreviates: second compound 10 µM, first compound 0.00949 µM.
[33] abbreviates: second compound 10 µM, first compound 0.03 µM.
[34] abbreviates: second compound 10 µM, first compound 0.0949 µM.
The mark [35] stands for this setting: second compound 10 µM, first compound 0.3 µM.

The structures appear in SMILES notation. Where “and” joins values, the source holds several entries; their conditions need not be identical. Identical values can stand only once. Bounds are passed on as bounds.
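Further: spheroids exposed to agents for 7 days after 3 days growth.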

By viability, T/C is commonly meant the ratio of treated to control. For orientation: IC50 means the concentration at which inhibition is half-maximal. For `Nc1ncn(C2CC(O)C(CO)S2)c(=O)n1` (stereo not drawn), the viability, T/C (compound 0.000949 µM) is 95.1% and 102%; the viability, T/C (compound 0.003 µM) is 98% and 105%; the viability, T/C (compound 0.00949 µM) was 136% and 94.5%; the viability, T/C (compound 0.03 µM) is 124% and 76.7%; the viability, T/C (compound 0.0949 µM) is 73% and 53.8%; the viability, T/C (compound 0.3 µM) was 38% and 34.8%. In addition, the IC50 (curve of compound) was 202 nM and 115 nM.

In the case of `Nc1ncn(C2CC(O)C(CO)S2)c(=O)n1` (stereo not drawn) + NC1CCC(NC2CC2c2ccccc2)CC1, the half-maximal inhibitory concentration (IC50) runs as follows: under setting [1], 193 nM; under setting [2], 175 nM; under setting [3], 192 nM; under setting [4], 202 nM; under setting [5], 229 nM. Also, the viability, T/C was 85.7% under setting [6]; 82.5% under setting [7]; 94.3% under setting [8]; 105% under setting [9]; 70.9% under setting [10]; 37.2% under setting [11]. Moreover, the viability, T/C reads like this: under setting [12], 91.2%; under setting [13], 75.8%; under setting [14], 90.9%; under setting [15], 116%; under setting [16], 66.4%; under setting [17], 35.7%. Besides, the viability, T/C under setting [18] is 73.4%; the viability, T/C under setting [19] was 84%; the viability, T/C under setting [20] was 94.8%; the viability, T/C under setting [21] is 101%; the viability, T/C under setting [22] is 66.8%; the viability, T/C under setting [23] was 39.3%. The viability, T/C runs as follows: under setting [24], 85.1%; under setting [25], 87.5%; under setting [26], 111%; under setting [27], 109%; under setting [28], 66.6%; under setting [29], 41.3%. Also, the viability, T/C runs as follows: under setting [30], 85.4%; under setting [31], 90.8%; under setting [32], 98.8%; under setting [33], 93.8%; under setting [34], 69.1%; under setting [35], 44.1%.

Take `CC1COCCN1c1cc(C2(S(C)(=N)=O)CC2)nc(-c2ccnc3[nH]ccc23)n1` (stereo not drawn) + NC1CCC(NC2CC2c2ccccc2)CC1: the concentration for half-maximal inhibition (IC50) under setting [1] came to 1680 nM; the IC50 under setting [2] was determined as 1840 nM; the half-maximal inhibitory concentration (IC50) under setting [3] is 1780 nM; the half-inhibitory concentration (IC50) under setting [4] stood at 1830 nM; the IC50 under setting [5] turned out to be 2050 nM. Besides, the viability, T/C by setting is: (second compound 0.1 µM, first compound 0.0316 µM) 85.4%; (second compound 0.1 µM, first compound 0.1 µM) 85%; (second compound 0.1 µM, first compound 0.316 µM) 96.4%; (second compound 0.1 µM, first compound 1 µM) 73.3%; (second compound 0.1 µM, first compound 3.16 µM) 20.8%; (second compound 0.1 µM, first compound 10 µM) 9.16%. In addition, the viability, T/C is 85.1% (second compound 0.316 µM, first compound 0.0316 µM); 84.2% (second compound 0.316 µM, first compound 0.1 µM); 94.5% (second compound 0.316 µM, first compound 0.316 µM); 81.7% (second compound 0.316 µM, first compound 1 µM); 21.7% (second compound 0.316 µM, first compound 3.16 µM); 9.42% (second compound 0.316 µM, first compound 10 µM). Moreover, the viability, T/C runs as follows: (second compound 1 µM, first compound 0.0316 µM) 88.8%; (second compound 1 µM, first compound 0.1 µM) 85.4%; (second compound 1 µM, first compound 0.316 µM) 87%; (second compound 1 µM, first compound 1 µM) 76.2%; (second compound 1 µM, first compound 3.16 µM) 23.7%; (second compound 1 µM, first compound 10 µM) 9.58%. Moreover, the viability, T/C runs as follows: (second compound 3.16 µM, first compound 0.0316 µM) 88.8%; (second compound 3.16 µM, first compound 0.1 µM) 83%; (second compound 3.16 µM, first compound 0.316 µM) 86.1%; (second compound 3.16 µM, first compound 1 µM) 78.7%; (second compound 3.16 µM, first compound 3.16 µM) 24.2%; (second compound 3.16 µM, first compound 10 µM) 11.3%. In addition, the viability, T/C is, setting by setting: (second compound 10 µM, first compound 0.0316 µM) 81.8%; (second compound 10 µM, first compound 0.1 µM) 105%; (second compound 10 µM, first compound 0.316 µM) 84.7%; (second compound 10 µM, first compound 1 µM) 84.2%; (second compound 10 µM, first compound 3.16 µM) 29.4%; (second compound 10 µM, first compound 10 µM) 9.99%.

`NC1CCC(NC2CC2c2ccccc2)CC1` (stereo not drawn): the viability, T/C (compound 0.316 µM) is 79.8% and 83.8% and 81.9%. For the same compound, the IC50 (compound alone, run of 02/15/2022) was more than 10000 nM.

As for `Cn1ncnc1C1c2n[nH]c(=O)c3cc(F)cc(c23)NC1c1ccc(F)cc1` (stereo not drawn), the viability, T/C is, setting by setting: (compound 0.000316 µM) 92.8% and 99.4%; (compound 0.001 µM) 103% and 104%; (compound 0.00316 µM) 88% and 103%; (compound 0.01 µM) 102% and 99%; (compound 0.0316 µM) 82.2% and 97.7%; (compound 0.1 µM) 97.2% and 98.6%. The IC50 (curve of compound) is more than 100 nM.

Turning to `CCc1c2c(nc3ccc(O)cc13)-c1cc3c(c(=O)n1C2)COC(=O)[C@]3(O)CC` + NC1CC1c1ccc(-c2cccc(O)c2)cc1, the IC50 was less than 0.949 nM under setting [1]; less than 0.949 nM under setting [2]; less than 0.949 nM under setting [3]; less than 0.949 nM under setting [4]; less than 0.949 nM under setting [5]. Further, the viability, T/C under setting [6] was 44.7%; the viability, T/C under setting [7] was 30.8%; the viability, T/C under setting [8] is 25.1%; the viability, T/C under setting [9] was 15.4%; the viability, T/C under setting [10] was 21.5%; the viability, T/C under setting [11] was 19.3%. Besides, the viability, T/C under setting [12] is 49%; the viability, T/C under setting [13] is 37.4%; the viability, T/C under setting [14] is 17.8%; the viability, T/C under setting [15] is 20%; the viability, T/C under setting [16] is 16.7%; the viability, T/C under setting [17] is 22.7%. For the same compound, the viability, T/C is, setting by setting: under setting [18], 36.3%; under setting [19], 22.2%; under setting [20], 8.77%; under setting [21], 16.8%; under setting [22], 13.8%; under setting [23], 18.6%. In addition, the viability, T/C is 22.5% under setting [24]; 22.6% under setting [25]; 5.26% under setting [26]; 13.8% under setting [27]; 14.6% under setting [28]; 5.74% under setting [29]. Besides, the viability, T/C under setting [30] is 26.9%; the viability, T/C under setting [31] was 14.8%; the viability, T/C under setting [32] was 2.56%; the viability, T/C under setting [33] was 8.5%; the viability, T/C under setting [34] was 7.12%; the viability, T/C under setting [35] is 4.11%.

On to `CC1COCCN1c1cc(-c2ccnn2C)c2ccnc(-c3ccn[nH]3)c2n1` (stereo not drawn), for which the viability, T/C was 55.2% and 49.8% (compound 0.00316 µM); 41.7% and 43.5% (compound 0.01 µM); 15.5% and 21.5% (compound 0.0316 µM); 7.25% and 9.16% (compound 0.1 µM); 6.43% and 6.74% (compound 0.316 µM); 5.29% and 6.58% (compound 1 µM). For the same compound, the IC50 (curve of compound) was 4.91 nM and < 3.16 nM.

The record behind these values is PubChem BioAssay AID1918932 (Molecular Pharmacology Branch, DTP, NCI, 2023).
